Results reported in patent publication US20190343801A1, “COMPOSITIONS AND METHODS FOR CONTROLLING NATURAL KILLER CELL ACTIVATION AND FUNCTION” (BAR ILAN UNIVERSITY, priority 2017, published 2019).
Structures can show the parent of a compound that is named as a salt.

Key:
YTS F-tractin GFP cells = assay: NKIS area of YTS F-tractin GFP cells spread over antibody-coated coverslips; format: cell-based; conditions: 25 μM Y-27 or 1 μM JAS; anti-CD28 or anti-KIR1
Procedure: FIGS. 5E-5H. show analyses of NKIS area and ARF in the activating vs. inhibitory NKIS in the presence of Y-27632 (Y-27) inhibitor of myosin light chain (MLC) phosphorylation and/or JAS. In FIG. 5E is live cell imaging of YTS-2DL1 cells expressing F-tractin GFP treated with 25 μM Y-27 (anti-CD28: n=6 movies; anti-KIR1: n=6 movies). […] In FIG. 5F are YTS F-tractin GFP cells treated with 25 μM Y-27 or left untreated. Cells were seeded over coverslips pre-coated with anti-CD28 or anti-KIR1 and allowed to spread at 37° C. for 10 min before fixation, and 1 μM JAS was added 5 min after initial spreading. NKIS area was determined using ImageJ. […]
Chambered cover glasses (LabTek) were cleaned by treatment with 1 M HCl, 70% ethanol for 30 min and dried at 60° C. for 30 min. […] The NK and target cells in the conjugates were distinguished based on fluorescence signal, in which the target cells expressed mCherry and the NK cells expressed various YFP, CFP or GFP tagged proteins. […] The relative fluorescence intensity of the proteins at the synapse was determined by measuring the ratio between fluorescence intensity at the NKIS relative to a non-NKIS site using ImageJ. […]

[1] = test system: F-actin retrograde flow in YTS and pNK F-tractin GFP cells; assay: Live cell imaging and kymograph analysis of F-actin retrograde flow (ARF) in F-tractin GFP NK cells; format: cell-based; conditions: 25 μM Y-27, activating vs. inhibitory NKIS
From the text: FIGS. […] In FIG. 5A, YTS F-tractin GFP cells were dropped over coverslips coated with anti-CD28 or anti-KIR1 antibodies, and imaged at 1 frame/sec through a single focal plane. […] Representative images are shown. Kymographs of F-actin dynamics were compiled along the contact site radius. […]
The y axis represents F-actin velocity (μm/sec), and the x axis—time from initial spreading (sec).
FIGS. 5E-5H. show analyses of NKIS area and ARF in the activating vs. inhibitory NKIS in the presence of Y-27632 (Y-27) inhibitor of myosin light chain (MLC) phosphorylation and/or JAS. […] NKIS area was determined using ImageJ. […]
Analyses of actin and SHP-1 dynamics were performed by preparing kymographs from live cell videos and tracing the movement of the fluorescently tagged proteins. […] Velocity over distance from the center was determined by calculating the velocity of the tracked protein based on the distance traversed to time between each two points on the trace, and noting the relative location from the center of the measured area. […] For each bin, average velocity and standard error were calculated. Average distance traversed over time was calculated by measuring the location of the trace, relative to its point of origin at each time point after the beginning of the trace. For each relative time point from the beginning of a trace, an average distance and standard error were calculated. […]

For `C[C@@H](N)C1CCC(C(=O)Nc2ccncc2)CC1` (stereo partly drawn) [Formula Y-27, 4-[(1R)-1-aminoethyl]-N N-4-pyridinyl-trans-cyclohexanecarboxamide, dihydrochloride], the “NKIS area / NK contact area” value (YTS F-tractin GFP cells) was “significantly enlarged NKIS area” and the F-actin flow [1] was “complete arrest of F-actin flow”.
